Earlier results in patent US7026316B2, “Dipeptidyl peptidase inhibitors for the treatment or prevention of diabetes” (Merck & Co., Inc., priority 2001, dated 2006).

Columns and labels:
mouse = settings: cyclophosphamide-induced neutropenia
DP-IV = DP-IV (Homo sapiens, UniProt P27487)
rats = settings: survival doubled from day 7 to day 14

Chain of DP-IV (P27487 whole entry): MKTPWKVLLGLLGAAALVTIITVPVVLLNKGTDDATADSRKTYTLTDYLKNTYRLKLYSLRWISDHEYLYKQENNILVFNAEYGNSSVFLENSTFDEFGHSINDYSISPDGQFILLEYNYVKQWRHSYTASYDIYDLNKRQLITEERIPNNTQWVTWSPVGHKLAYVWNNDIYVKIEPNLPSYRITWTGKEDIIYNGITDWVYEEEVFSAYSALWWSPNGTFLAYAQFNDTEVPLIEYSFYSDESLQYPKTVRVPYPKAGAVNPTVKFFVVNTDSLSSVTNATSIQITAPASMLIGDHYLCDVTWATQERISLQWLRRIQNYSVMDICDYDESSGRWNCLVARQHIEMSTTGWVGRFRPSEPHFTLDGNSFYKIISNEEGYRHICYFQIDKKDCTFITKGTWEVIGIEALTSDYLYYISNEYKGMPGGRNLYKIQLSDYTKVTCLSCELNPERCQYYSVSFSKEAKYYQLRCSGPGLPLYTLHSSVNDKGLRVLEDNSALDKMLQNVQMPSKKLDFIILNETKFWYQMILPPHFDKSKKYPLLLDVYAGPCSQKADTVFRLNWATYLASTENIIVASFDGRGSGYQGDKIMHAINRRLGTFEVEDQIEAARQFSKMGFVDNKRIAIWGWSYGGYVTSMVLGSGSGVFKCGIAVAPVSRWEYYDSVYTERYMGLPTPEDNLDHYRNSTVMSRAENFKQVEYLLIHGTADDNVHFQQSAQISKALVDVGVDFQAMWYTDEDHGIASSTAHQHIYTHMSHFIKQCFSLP

CC(C)[C@H](N)C(=O)N1CCC[C@H]1B(O)O [Val-Boro-Pro]
hematopoiesis (mouse): stimulated hematopoiesis

CC[C@H](C)[C@H](N)C(=O)N1CCC[C@H]1C(=O)N[C@H](C(=O)O)[C@@H](C)CC [diprotin A]
degradation of GRH in plasma to GRH[3-44] (DP-IV): prevented

CC(C)N1CCC(c2ccccc2)(c2ccccc2)CC1 [Prodipine, Pro-Pro-diphenyl-phosphonate]
cardiac allograft survival (rats): 14 day
